Experimental data: US20210308133A1, “METHODS AND COMPOSITIONS FOR INHIBITING MUSCLE WASTING” (THE BOARD OF REGENTS OF THE UNIVERSITY OF TEXAS SYSTEM, priority 2020, published 2021)

Experiments:
LLC tumor-bearing mice [1] = conditions: as reported previously (ref 8); cited from earlier work
[2] = system: p38α MAPK-mediated myogenic differentiation of C2C12 myoblasts; experiment: myogenic differentiation of C2C12 myoblasts (MHC expression); type: cell-based, Murine; conditions: 96 hours differentiation
Excerpt: (§1) Western blotting. All procedures were adhered to our previous publication ^12. The following primary antibodies were used: anti-p300 (1:500, sc584, Santa Cruz), anti-C/EBPβ (1:1000, MA1-827, Thermo Fisher), anti-pT188-C/EBPβ (1:1000, 3084, Cell Signaling Technology), anti-TLR4 (1:500, sc16240, Santa Cruz), anti-p38α MAPK (1:500, sc271120, Santa Cruz), anti-p38s MAPK (1:500, 2339, Cell Signaling Technology), anti-p38 MAPK (1:1000, 9212, Cell Signaling Technology), anti-p-p38 MAPK (1:1000, 4511, Cell Signaling Technology), anti-MAFbx (1:1000, AP2041, ECM Bioscience), anti-UBR2 (1:500, NBP1-45243, Novus Biologicals), anti-LC3 (1:2000, NB100-2220, Novus Biologicals) and anti-MHC (1:1000, MAB4470, R&D Systems). Antibody against acetylated Lys-39 of C/EBPβ (1:2000) was generated as previously described ^12. […] (SEQ ID NO: 1). Data were normalized to α-Tubulin (Development Studies Hybridoma Bank at the University of Iowa, Iowa City, Iowa).

[3] = system: p38β MAPK-mediated activation of p300 and C/EBPβ; experiment: LCM-induced p300 activation (Ser-12 phosphorylation) and C/EBPβ acetylation in C2C12 myotubes, Western blotting; type: cell-based, Murine; conditions: LCM 2 h, concentration-dependent
Procedure: Cell cultures. Murine C2C12 myoblasts (American Type Culture Collection, ATCC) and human skeletal myoblasts (GIBCO®) were grown in growth medium (DMEM supplemented with 10% fetal bovine serum) at 37° C. under 5% CO2. Myoblast differentiation was induced at 85% confluence with differentiation medium (DMEM supplemented with 4% heat-inactivated horse serum in) for 96 hrs. Preconditioned medium from 48-hour cultures of Lewis lung carcinoma cells (National Cancer Institute, Frederick, Md.), H1299 human lung carcinoma cells (ATCC) or KPC cells (a gift from Dr. Elizabeth Jaffee of Johns Hopkins University) 14 were collected and centrifuged (1000×g, 5 min). Conditioned medium of non-tumorigenic NL20 cells (human lung epithelial cells, ATCC) was used as control. The supernatant was used to treat myotubes (25% final volume in fresh medium) when indicated and replaced every 24 h. […] All cell lines were tested negative for mycoplasma contamination. Cell culture-based experiments were replicated independently for 3 times.
Western blotting. All procedures were adhered to our previous publication ^12. […]

[4] = humans, 24 hours after first PO administration of 50 mg; cited from earlier work
p38 MAPK = p38 MAPK activation and catabolic response in primary human myotubes treated with H1299 cell-conditioned medium; type: cell-based; conditions: 500 nM
Excerpt: as §1

C2C12 myotubes = experiment: LCM-induced loss of MHC and myotube mass in C2C12 myotubes; type: cell-based, Murine; conditions: 500 nM, LCM 72 hrs
Excerpt: as §1
Fluorescence microscopy and histology study. […] Myotube diameter was measured in MHC-stained myotubes as previously described ^12. Cross-sectional area of H&E-stained muscle sections was quantified by using the ImageJ software (NIH). Approximately 100 myofibers from each of 5 random views were quantified.

LLC tumor-bearing mice [5] = experiment: muscle wasting in LLC tumor-bearing mice; type: in vivo; conditions: 0.5 mg/kg/day i.p. from day 7 for 2 weeks
Procedure: Mice were euthanized on day 21. The tumor was isolated and weighed, and then the net body weight was measured. Muscle samples were collected immediately for analyses of muscle wasting. […] Catabolic markers in TA muscle lysates were analyzed by Western blotting. […] Grip strength was measured on the day of euthanasia. […] H&E-stained TA cross sections were analyzed for the myofiber cross-sectional area. * signifies a statistically significant difference (p<0.05) determined by one-way ANOVA (FIGS. 5A-E) or Chi-square test (FIG. 5F).
Animal use. Experimental protocols were pre-approved by the institutional Animal Welfare Committee at the University of Texas Health Science Center at Houston. LLC cells (1×10^6 in […]) were injected subcutaneously into the flanks of 8-week-old male C57B16 mice, TLR4^−/− mice in the C57BL/6 background ^17, or p38β MAPK muscle-specific knockout and p38β MAPK-floxed mice in the C57BL/6 background ^18. […] DMSO was injected accordingly as vehicle control. Plasmid encoding the p300-S12A mutant was transfected into TA muscle by electroporation on day 7 and day 14 following LLC implantation as described previously ^12. The contralateral TA was transfected with an empty vector as control. […] On day 21, mice were euthanized, and muscle samples were harvested for further analyses. For survival study, orthotopic implantation of KPC cells was performed based on the procedures by Zhu et al. ^19. Briefly, a longitudinal incision was made to open the abdominal cavity for pancreas exposure. Then, 2×10^6 KPC cells suspended in 20 μl PBS were injected to the tail of pancreas.
as §1
Fluorescence microscopy and histology study. C2C12 myotubes were stained with anti-MHC antibody (1:1000, MAB4470, R&D Systems) and anti-mouse Alexa Fluor® Plus 488 secondary antibody (1:200, A32723, ThermoFisher), and examined using a Zeiss Axioskop 40 microscope and a Zeiss Axiocam MRM camera system controlled by Axiovision Release 4.6 imaging software. Acquired images were edited using the Photoshop software. Myotube diameter was measured in MHC-stained myotubes as previously described ^12. Cross-sectional area of H&E-stained muscle sections was quantified by using the ImageJ software (NIH). Approximately 100 myofibers from each of 5 random views were quantified.

UBR2 = experiment: LCM-induced UBR2 upregulation in C2C12 myotubes, Western blotting; type: cell-based, Murine; conditions: LCM 8 hours, concentration-dependent
Excerpt: as §1

KPC tumor-bearing mice = experiment: survival and muscle wasting of mice bearing orthotopic KPC pancreatic tumor; type: in vivo
Procedure: Survival of KPC tumor-bearing mice was recorded and analyzed using the Kaplan-Meier survival curve. […] Forelimb grip strength of the mice was monitored over the course of the survival study. Data were analyzed by 2-way ANOVA. * signifies a statistically significant difference (p<0.05).
At the end point, both of DMSO or nilotinib-treated KPC tumor-bearing mice were euthanized. Tumors were isolated and weighted (left panel). Net body weight was measured (right panel).
Animal use. Experimental protocols were pre-approved by the institutional Animal Welfare Committee at the University of Texas Health Science Center at Houston. LLC cells (1×10^6 in […]) were injected subcutaneously into the flanks of 8-week-old male C57B16 mice, TLR4^−/− mice in the C57BL/6 background ^17, or p38β MAPK muscle-specific knockout and p38β MAPK-floxed mice in the C57BL/6 background ^18. […] DMSO was injected accordingly as vehicle control. Plasmid encoding the p300-S12A mutant was transfected into TA muscle by electroporation on day 7 and day 14 following LLC implantation as described previously ^12. The contralateral TA was transfected with an empty vector as control. Development of cachexia was monitored by body weight and forelimb grip strength test, and usually took place within 21 days after implantation. On day 21, mice were euthanized, and muscle samples were harvested for further analyses. For survival study, orthotopic implantation of KPC cells was performed based on the procedures by Zhu et al. ^19. Briefly, a longitudinal incision was made to open the abdominal cavity for pancreas exposure. Then, 2×10^6 KPC cells suspended in 20 μl PBS were injected to the tail of pancreas.

p38β MAPK = p38β MAPK (Homo sapiens, UniProt Q15759); conditions: p38β MAPK vs p38α MAPK; cited from earlier work
p38β MAPK, sequence (Q15759 whole entry): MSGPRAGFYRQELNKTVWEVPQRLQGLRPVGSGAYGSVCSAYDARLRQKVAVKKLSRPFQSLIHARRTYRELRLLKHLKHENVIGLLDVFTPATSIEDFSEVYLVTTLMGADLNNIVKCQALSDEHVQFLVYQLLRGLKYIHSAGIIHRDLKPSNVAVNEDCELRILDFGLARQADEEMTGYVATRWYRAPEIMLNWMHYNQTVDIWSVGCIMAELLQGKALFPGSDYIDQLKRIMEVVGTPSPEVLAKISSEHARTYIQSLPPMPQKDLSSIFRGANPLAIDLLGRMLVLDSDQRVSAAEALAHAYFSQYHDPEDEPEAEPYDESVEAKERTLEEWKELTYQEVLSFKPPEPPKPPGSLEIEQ

Oc1ccc(-c2nc(-c3ccncc3)c(-c3ccc(F)cc3)[nH]2)cc1 [SB202190]
LLC tumor-induced muscle wasting in mice (LLC tumor-bearing mice [1]): attenuates
onset of myoblast differentiation (MHC expression at 24 and 48 hours) ([2]; 10 μM): delayed

Cc1cn(-c2cc(NC(=O)c3ccc(C)c(Nc4nccc(-c5cccnc5)n4)c3)cc(C(F)(F)F)c2)cn1 [nilotinib]
C/EBPβ acetylation on Lys-39 [3]: inhibited
MHC expression over the course of myoblast differentiation ([2]; 500 nM): did not alter MHC expression
serum concentration [4]: approximately 400 ng/ml
C/EBPβ phosphorylation on Thr-188 (p38 MAPK; 1 h): blockade
p38 MAPK activation by H1299 conditioned medium (p38 MAPK; 1 h): abrogated
upregulation of E3 ligase UBR2 (p38 MAPK; 8 h): blockade
LCM-induced loss of myosin heavy chain (MHC) (C2C12 myotubes): resistant
LCM-induced loss of myotube mass (myotube diameters) (C2C12 myotubes): resistant
LLC tumor growth (LLC tumor-bearing mice [5]): without affecting tumor growth
activation of p300 (Ser-12 phosphorylation and Lys-39 acetylation of C/EBPβ) in TA muscle (LLC tumor-bearing mice [5]): abolished
increase in autophagosome formation (LC3-II levels) (LLC tumor-bearing mice [5]): blockade
loss of MHC in muscle (LLC tumor-bearing mice [5]): blockade
loss of TA and EDL weight (LLC tumor-bearing mice [5]): attenuated
loss of body weight (LLC tumor-bearing mice [5]): protected against the loss of body weight
loss of muscle strength (grip strength) (LLC tumor-bearing mice [5]): attenuated
myofiber cross-sectional area in TA (LLC tumor-bearing mice [5]): preserved myofiber mass
upregulation of E3 ligases UBR2 and atroginl/MAFbx in TA muscle (LLC tumor-bearing mice [5]): blockade
LCM-induced upregulation of UBR2 (UBR2): inhibited
median survival (KPC tumor-bearing mice; 0.5 mg/kg/day i.p. from day 5 until end point): 31 days
tumor volume at the end point versus DMSO (KPC tumor-bearing mice; 0.5 mg/kg/day i.p., at end point): without significant difference in tumor volume
loss of muscle function measured as grip strength (KPC tumor-bearing mice; 0.5 mg/kg/day i.p., over the course of the survival study): attenuated
binding affinity for p38β MAPK higher than for p38α MAPK (p38β MAPK): 3 fold
